{"source": "patent US20230189790A1", "about": "“NON-FREEZING REFRIGERATED STORAGE LIQUID FOR STEM CELLS” (BIOVERDE INC., priority 2019, published 2023)", "key": {"human iPS cells [1]": {"tested_on": "human iPS cells", "experiment": "Colony forming ability (relative colony efficiency) after refrigerated storage for 6 days and culturing for 5 days", "assay_type": "cell-based", "details": "6 days storage, 5 days culturing", "method": "The cell proliferation ability after non-freezing refrigerated storage was verified as follows. First, the human iPS cells obtained in the above “1.” were placed into the refrigerated storage liquid HTM1 of the above “2.” and stored in the non-freezing refrigerated state for 6 days as in the above “3.”. The cells were then suspended in StemFit® AK02N medium containing 10 µM Y27362, into which iMatrix-511 was added by 0.1 µg/cm^2. and seeded at a concentration of 1.3E3/cm^2. On 5th day of culturing, the cells were stained with fixed alkaline phosphatase, and then the number of colonies formed to a certain size or larger was measured using a colony counter. The number of colonies when cultured for 5 days without being subjected to the refrigerated storage was similarly measured and used as a control. Then, the number of colonies obtained by culturing for 5 days after the refrigerated storage was divided by the number of colonies in this control to obtain colony forming ability (Relative colony efficiency).\nNext, in order to verify the proliferative ability after refrigerated storage and recultivation, cells having been stored in the refrigerated state for 6 days were seeded in the same manner as in “4.” above, and the colony forming ability on the 5th day of culturing was compared. […] This obtained value was almost the same as that of the customary conventional slow-cooling cryoprerservation method placing the cell suspension in a freezer at -80° C."}, "human iPS cells [2]": {"tested_on": "human iPS cells", "experiment": "Refrigerated storage in adhesive state (1): proliferation on recultivation for 4 days", "assay_type": "cell-based", "method": "Human iPS cells obtained in the same manner as in “1.” above were used. However, at the final stage of culturing, the cells were seeded at a slightly lower concentration (1.0E3/cm^2) than the maintenance culture of “1.” above, and the day after this seeding, culture medium was replaced by StemFit® A[…] medium containing no Y27362. Then, the medium was removed 4 days after the seeding. Subsequently, the medium was replaced with HTM1 which is for the non-freezing refrigerated storage, and the medium with the cells was left to stand for 3 or 6 days under 4° C. In other words, in a state the cells were aggregated and adhered to each other, the cells were stored in non-freezing refrigerated condition for 3 days or 6 days. Trolox was added to HTM1, which is the medium for refrigerated storage. […] A UW solution (BELZER UW (registered trademark) COLD STORAGE LIQUID) was also used as the refrigerated storage medium of the comparative example. The cells after the non-freezing refrigerated storage were lightly washed with culture medium after the refrigerated storage medium were removed. Then, StemFit® A[…] medium was added and culturing was made for 4 days. At the end of this culturing, cells were enzymatically detached (by using 0.5X TrypLE® Select), and dispersed so that number of viable cells are counted. Then, it was compared with the number of cells at the start of refrigerated storage. In addition, after taking a phase difference image at the end and start of the culturing, image processing was performed with ImageJ to extract and binarize the colony area, and the colony area was measured to evaluate the proliferative ability. The above experiment was aimed at developing a refrigerated storage method in a state iPS cells were adhered, and proliferative ability (colony forming ability) subsequent to culturing for 4 days after the non-freezing refrigerated storage for 3 or 6 days. FIGS. 7A-7B show images of colonies obtained by the […] for 4 days after 3 days of the refrigerated storage, and FIGS. 7C-7D show images of colonies obtained by recultivation for 4 days after he refrigerated storage for 6 days. Here, FIGS. 7A and 7C are phase differentiation images, and binarized images of these are shown in FIGS. 7B and 7D, respectively. […] Further, in the bar graphs of FIGS. 7F and 8, the rate of increase in the number of colonies when recultivated for 4 days after the refrigerated storage for 3 days and 6 days. In the graph, the rate for a control, which is for cell not subjected to the refrigerated storage, is taken as “1” or 100%."}, "[3]": {"tested_on": "human iPS cell line (253G1)", "experiment": "Non-freezing refrigerated storage in single cell state at 4° C., survival rate by trypan blue", "assay_type": "cell-based", "details": "for effect of antioxidant/radical scavenger on ST80 (ranking): added to HTM1 at various concentrations; for 80% survival-rate maintenance days (ST80): single cell state, 4° C.", "from_the_text": "A healthy human-derived human iPS cell line (253G1) obtained from the Center for iPS Cell Research and Application, Kyoto University was maintained and cultured under feeder-free conditions. For this culture, StemFit (registered trademark) AK02N (Ajinomoto), which is a commercially available medium for clinical research for human ES/iPS cells was used. When the cells reached 70-80% confluence on the 7th day after the start of the culture, the cells were enzymatically stripped off from a container by using 0.5X TrypLE® Select, and then dispersed and washed. Subsequently, the cells were suspended in a new StemFit® AK02N medium containing 10 µM Y27362 (Fujifilm Wako Pure Chemical Industries, Ltd.) as a ROCK inhibitor, and added with iMatrix-511 (MATRIXOME, Inc.) as a further cell culture substrate at 0.1 µg/cm^2. Then, the cells were seeded at a concentration of 1.3E3/cm^2 (1.3 ×10^3/cm^2). The day after the seeding, the medium was replaced with StemFit® AK02N medium containing no Y27362, then the medium was replaced every 3 days and subcultured or tested on day 7.\nThe human iPS cells obtained in “1.” above are added into the refrigerated storage liquids HTM1 and HTM2 in “2.” above to be suspended at 1E6 cells/mL (number of floating cells 1x10^6 cells/mL) in a cell state. Then, the suspensions were placed into a plastic tube and allowed to stand at 4° C. for storage. The survival rate was determined by counting the number of living cells after staining with trypan blue.\nThe statistical processing in the examples of the present application was performed as follows. The survival rate maintenance curves in FIGS. 1A and 2B were obtained by using “R ver 3.5.1” to fit the four-variable logistic curve. The 1way ANOVA and Bonferoni and Dunnetts tests were calculated using “Graphpad Prism 5.04”.\nAntioxidants or radical scavengers were added to HTM1 at various concentrations and subjected to the non-freezing refrigerated storage test as described in “3.” above. The added antioxidants or radical scavengers are shown in FIG. 5A and are: Trolox (Trx, Wako), EGCG (Teavigo®, DSM), N-acetylcysteine (NAC, Tokyo Kasei), L-ascorbic acid (AA, WAKO)), and edaravone (3-Methyl-1-phenyl-2-pyrazoline-5-one, Sigma)."}, "[4]": {"tested_on": "mouse blastocyst stage embryos", "experiment": "Refrigerated storage of mouse embryos: escape from the zona pellucida", "assay_type": "cell-based, mouse (ICR)", "details": "14 µM to 140 µM; low temperature storage for 5 days and 7 days", "method": "On the other hand, in order to try non-freezing refrigerated storage of mouse embryos (FIGS. 10 to 11), in vitro fertilization was performed by ova and sperms from female and male mice (both ICR), and then embryos were cultured for 3.5 days (84 hours). Here, HTF (Fuji Film Wako Pure Chemical Industries, Ltd.) was used as the medium for insemination, and KSOM (Arc Resource) was used for culturing.\nAs described above, a blastocyst stage embryo 3.5 days after in vitro fertilization was immediately used as it was, and a refrigerated storage experiment was conducted. Specifically, for this blastocyst stage embryo, the medium was replaced with the HTM-alpha, HTM1, and HTS FRS as used in the above “11.” and the UW solution, in respective experiments. […] Both of HTM-alpha and HTM1 here are obtained by adding 5 mM Trolox and 5-fold concentration (x5; 10 mM) GlutaMAX (registered trademark) in the same manner as in “11.” above.\nNext, the effect of adding adenine hydrochloride (Tokyo Kasei) was investigated in the same manner as in FIGS. 7E to 7F. That is, under the same conditions as in the experiment of FIG. 10, the rate of embryos that escaped the zona pellucida when Adenine hydrochloride (Tokyo Kasei) was added at each concentration was determined."}, "human iPS cells [5]": {"tested_on": "human iPS cells", "experiment": "Relative survival rate after 6 days of refrigerated storage and 1 day of recovery culturing", "assay_type": "cell-based", "details": "for effectiveness in refrigerated storage (relative survival rate): 0.04 mM to 5.0 mM added to HTM-alpha without trolox and GlutaMAX, compared with trolox 2.0 mM", "method": "The HTM-alpha (UW solution + MEM-alpha, 2: 1) described in “2.” above, which has not been added with trolox and GlutaMAX (registered trademark, GIBCO), is used in FIGS. 6A and 2A. The effect of the addition of tocopherol (vitamin E) and tocopherol acetate (vitamin E derivative) in the non-freezing refrigerated storage was investigated by the same procedure as in case of trolox addition in the above. Tocopherol and tocopherol acetate were added so as to become 0.04 mM to 5.0 mM in the same manner as the trolox addition, and refrigerated storage was performed. At this time, a sample to which trolox at 2.0 mM, which is a water-soluble vitamin E analog, was added was also tested at the same time. FIG. 6D summarizes the relative survival rates after 6 days of the storage and 1 day of recovery cultivation.\nHere, the effect of adding polyvinyl alcohol (PVA) instead of hydroxyethyl starch (HES) was investigated. Here, the composition of the UW solution shown in Table 1 above, excluding hydroxyethyl starch (HES), was adopted. Thus, the other components are same with those in the HTM-alpha (UW solution + MEM-alpha, 2: 1) while polyvinyl alcohol (PVA) in the range of 0.25% to 2.5% (weight) were added in the storage liquids used here. The cell viability was evaluated in the same manner as in the case of FIG. 6D above. That is, the protective effect of polyvinyl alcohol (PVA) was examined by the same procedure as in FIGS. 6A and 2A. At this time, a sample having a hydroxyethyl starch (HES) concentration of 5% (weight) was also tested at the same time. FIG. 12A summarizes the relative survival rates after 6 days of the refrigerated storage and 1 day of recovery culturing. […] It should be noted that polyvinyl alcohol (PVA) is cheaper than hydroxyethyl starch (HES), and is considered to be safer for living tissues.\nNext, in the same manner as in “13.” above, mannitol was added together with polyvinyl alcohol (PVA), and the synergistic effect was verified. […]"}, "[6]": {"details": "additive 5 mM in HTM1, listed as trolox"}}, "data": [{"compound": "Cc1c(C)c2c(c(C)c1O)CCC(C)(C(=O)O)O2", "note": "(stereo not drawn) [Trolox]", "values": [{"measurement": "colony forming ability as multiple of HTM1 alone", "setting": "human iPS cells [1]; 5.0 mM added to HTM1", "result": "about twice"}, {"measurement": "colony forming ability relative to control not subjected to refrigerated storage", "setting": "human iPS cells [1]; 5.0 mM added to HTM1", "result": 41.2, "unit": "%"}, {"measurement": "colony forming ability as multiple of HTM1 alone", "setting": "human iPS cells [1]; 5.0 mM added to HTM1, listed as trolox", "result": 2.3, "unit": "times"}, {"measurement": "colony forming ability, dependence on concentration", "setting": "human iPS cells [1]; added to HTM1", "result": "increased depending on the concentration of trolox"}, {"measurement": "cell proliferation rate at recultivation compared with control not refrigerated", "setting": "human iPS cells [2]; 5 mM added into HTM1, storage 3 days", "result": "almost the same value as that in the control"}, {"measurement": "cell proliferation rate at recultivation relative to control not refrigerated", "setting": "human iPS cells [2]; 5 mM added into HTM1, storage 6 days", "result": "about 10%"}, {"measurement": "ST80 compared with HTM1 with no trolox added", "setting": "[3]; 0.5 mM or more added to HTM1", "result": "significantly higher"}, {"measurement": "ST80, dependence on addition concentration", "setting": "[3]; added to HTM1, concentration varied", "result": "increase approximately with increasing trolox concentrations"}, {"measurement": "effect of antioxidant/radical scavenger on ST80 (ranking)", "setting": "[3]", "result": "most effective"}, {"measurement": "survival rate maintenance days (ST80) as multiple of HTM1 alone", "setting": "[3]; additive 5 mM in HTM1", "result": "about 4 times"}, {"measurement": "survival rate maintenance days (ST80) as multiple of UW solution", "setting": "[3]; additive 5 mM in HTM1", "result": 9.5, "unit": "times"}, {"measurement": "survival rate maintenance days (ST80) as multiple of HTM1 alone", "setting": "[3]; [6]", "result": 4.4, "unit": "times"}, {"measurement": "80% survival-rate maintenance days (ST80)", "setting": "[3]; additive 5 mM in HTM1", "result": "≥ 20", "unit": "days"}, {"measurement": "80% survival-rate maintenance days (ST80)", "setting": "[3]; [6]", "result": 20.11, "unit": "days"}]}, {"compound": "O=C(O[C@@H]1Cc2c(O)cc(O)cc2O[C@@H]1c1cc(O)c(O)c(O)c1)c1cc(O)c(O)c(O)c1", "note": "[EGCG]", "values": [{"measurement": "effect of antioxidant/radical scavenger on ST80 (ranking)", "setting": "[3]", "result": "third highest effect"}]}, {"compound": "Cl.Nc1ncnc2nc[nH]c12", "note": "[Adenine, adenine hydrochloride]", "values": [{"measurement": "proliferation rate at recultivation", "setting": "human iPS cells [2]; 2.8 mM and 4.2 mM in HTM1 with Trolox 5 mM, storage 6 days", "result": "significantly increased"}, {"measurement": "growth rate at recultivation", "setting": "human iPS cells [2]; 8.2 mM in HTM1 with Trolox 5 mM, storage 6 days", "result": "decreased the growth rate"}, {"measurement": "zona pellucida escape rate", "setting": "[4]", "result": "relatively high zona pellucida escape rate"}]}, {"compound": "CC1=NN(c2ccccc2)C(=O)C1", "note": "[Edaravone, 3-Methyl-1-phenyl-2-pyrazoline-5-one]", "values": [{"measurement": "effect of antioxidant/radical scavenger on ST80 (ranking)", "setting": "[3]", "result": "second highest effect"}]}, {"compound": "tocopherol", "values": [{"measurement": "effectiveness in refrigerated storage (relative survival rate)", "setting": "human iPS cells [5]", "result": "less effective in refrigerated storage than trolox"}]}, {"compound": "CC(=O)Oc1c(C)c(C)c2c(c1C)CCC(C)(CCC[C@H](C)CCC[C@H](C)CCCC(C)C)O2", "note": "(stereo partly drawn) [tocopherol acetate]", "values": [{"measurement": "effectiveness in refrigerated storage (relative survival rate)", "setting": "human iPS cells [5]", "result": "less effective in refrigerated storage than trolox"}]}, {"compound": "OC[C@@H](O)[C@@H](O)[C@H](O)[C@H](O)CO", "note": "[mannitol]", "values": [{"measurement": "viability of the cells after refrigerated storage", "setting": "human iPS cells [5]; 30 mM to 90 mM together with 0.5% PVA in HTM-alpha without HES, compared with 5% HES", "result": "higher"}]}, {"compound": "CC(=O)N[C@@H](CS)C(=O)O", "note": "[N-acetylcysteine]", "values": [{"measurement": "effect of antioxidant/radical scavenger on ST80 (ranking)", "setting": "[3]", "result": "third highest effect"}]}, {"compound": "O=C1O[C@H]([C@@H](O)CO)C(O)=C1O", "note": "[L-Ascorbic Acid, L-ascorbic acid]", "values": [{"measurement": "effect of antioxidant/radical scavenger on ST80 (ranking)", "setting": "[3]", "result": "did not show much effect"}]}]}
